Test results published in patent US20220265629A1, “TREATMENT OF SYSTOLIC DYSFUNCTION AND HEART FAILURE WITH REDUCED EJECTION FRACTION WITH THE COMPOUND (R)-4-(1-((3-(DIFLUOROMETHYL)-1-METHYL-1H-PYRAZOL-4-YL)SULFONYL)-1-FLUOROETHYL)-N-(ISOXAZOL-3-YL)PIPERIDINE-1-CARBOXAMIDE” (MyoKardia, Inc., priority 2019, published 2022).
Like-named read-outs stand apart in the source and are kept apart here.

Assay: Single ascending oral dose study in healthy volunteers: plasma pharmacokinetics
Assay type: in vivo, human
Conditions: for Plasma concentration, Mean / concentration at 6 h: 6 Hours Postdose; for concentration at 6 h / concentration at 12 h / concentration at 24 h / concentration at 48 h / concentration at 72 h / AUC(0-t) / AUC(0-inf) / Cmax / half-life / MRT / Tmax / Vd/F: human, plasma, oral; for concentration at 12 h: 12 Hours Postdose; for concentration at 24 h: 24 Hours Postdose; for concentration at 48 h: 48 Hours Postdose; for concentration at 72 h: 72 Hours Postdose
Excerpt: This example describes the first-in-human study of Compound I. Based on its mechanism of action, Compound I may offer a targeted therapy for patients with DCM caused by genetic or nongenetic mechanisms. The study was a randomized, double-blind, placebo-controlled, sequential group, single-ascending (oral) close study in healthy subjects aged 18-55 years. Eight dosing cohorts, each comprising eight healthy subjects, were enrolled. Within each cohort, subjects were randomized 6:2 to Compound I:placebo.
Subjects were resident at the clinical site for up to 5 days and 4 nights, from Day −1 (the day before dosing) to Day 4, and received a single dose of Compound I or placebo on Day 1. ECG telemetry was initiated 1 hour preclose and continued through 48 hours postclose (Day 3). Any subject with a preclose resting HR≥80 beats per minute was considered ineligible and not treated. […] Subjects returned for a safety follow-up visit 7 days (±1 day) after dosing.
All randomized study subjects received either Compound I or matching placebo as a single oral dose after a fasting period of at least 6 hours. Compound I drug substance is a crystalline, free-base, synthetic molecule with a molecular weight of 435.4 g/mol.
Compound I was provided as a powder for oral suspension. Placebo was provided as calcium carbonate powder. Both treatments were closed orally as a suspension. The suspension was made using Ora-Plus® suspending vehicle (Perrigo) and a cherry syrup flavoring vehicle (Humco), mixed 50% to 50%. The suspension was followed by approximately 100 mL water. The suspension was made up within 14 days from the time in which it was closed which was consistent with the stability data on the suspension. The suspension was made up so the volume administered to the subjects who received Compound I was the same at 20 mL.
Each subject received a close according to the cohort in which they were enrolled. Cohorts were enrolled sequentially, with each cohort receiving an escalated dose of Compound I. The closes administered were 3 mg, 10 mg, 25 mg, 50 mg, 100 mg, 175 mg, 350 mg, and 525 mg, respectively.
The concentrations of Compound I in human plasma and urine were quantitated by high performance liquid chromatography with tandem mass spectrometric detection (LC MS/MS) (Biological sample analysis study report Alturas AD17-726). Plasma samples were extracted by protein precipitation with acetonitrile containing internal standard MYK-5654. The calibration curves were linear over concentration range of 0.500 to 1000 ng/mL with a lower limit of quantification (LLOQ) of 0.500 ng/mL.
The PK Population included all subjects who received Compound I. Blood samples were collected for PK assessments. The actual timing of the samples may have been modified and/or up to an additional 2 samples may have been requested by the SRC after review of the data from previous cohorts. It was important that PK sampling occurred as closely as possible to the scheduled time (±10%). Both blood and urine samples were used for PK assessments.
In addition, for subjects who received placebo, a single plasma sample near the predicted tmax of Compound I was evaluated to confirm the lack of circulating Compound I. Plasma concentration data for Compound I was summarized using descriptive statistics, including mean, standard deviation (SD), median, minimum, and maximum values, and percent coefficient of variation. Other PK parameters included (but were not limited to) Cmax, tmax, AUC, t1/2, and MRT. Additionally, the apparent terminal-phase terminal half-life was calculated. The close proportionality of AUC and Cmax was explored.

[1] = 3 mg, 3 mg, read-out: Plasma concentration, Geometric Mean
[2] = 3 mg, 3 mg, read-out: Plasma concentration, Mean
[3] = 3 mg, 3 mg, read-out: Plasma concentration, Median
[4] = 10 mg, 10 mg, read-out: Plasma concentration, Geometric Mean
[5] = 10 mg, 10 mg, read-out: Plasma concentration, Mean
[6] = 10 mg, 10 mg, read-out: Plasma concentration, Median

With Cn1cc(S(=O)(=O)[C@@](C)(F)C2CCN(C(=O)Nc3ccon3)CC2)c(C(F)F)n1 [Compound I, (R)-4-(1-((3-(difluoromethyl)-1-methyl-1H-pyrazol-4-yl)sulfonyl)-1-fluoroethyl)-N-(isoxazol-3-yl)piperidine-1-carboxamide] the “CL/F, Geometric Mean” value (3 mg) was 4.15 L/h, the “CL/F, Mean” value (3 mg) was 4.26 L/h and the “CL/F, Median” value (3 mg) was 4.22 L/h. For the same compound, the “Extrapolation, Geometric Mean” value (3 mg) was 2.71%, the “Extrapolation, Mean” value (3 mg) was 2.78% and the “Extrapolation, Median” value (3 mg) was 2.82%. The “CL/F, Geometric Mean” value (10 mg) was 2.99 L/h, the “CL/F, Mean” value (10 mg) was 3.06 L/h and the “CL/F, Median” value (10 mg) was 2.88 L/h. For the same compound, the “Extrapolation, Geometric Mean” value (10 mg) was 1.59%, the “Extrapolation, Mean” value (10 mg) was 1.90% and the “Extrapolation, Median” value (10 mg) was 2.24%. The “CL/F, Geometric Mean” value (25 mg) was 3.55 L/h, the “CL/F, Mean” value (25 mg) was 3.69 L/h and the “CL/F, Median” value (25 mg) was 3.32 L/h. The “Extrapolation, Geometric Mean” value (25 mg) was 1.45%, the “Extrapolation, Mean” value (25 mg) was 1.72% and the “Extrapolation, Median” value (25 mg) was 1.92%. For the same compound, the “CL/F, Geometric Mean” value (50 mg) was 4.47 L/h, the “CL/F, Mean” value (50 mg) was 4.53 L/h and the “CL/F, Median” value (50 mg) was 4.46 L/h. For the same compound, the “Extrapolation, Geometric Mean” value (50 mg) was 0.46%, the “Extrapolation, Mean” value (50 mg) was 0.91% and the “Extrapolation, Median” value (50 mg) was 0.46%. For the same compound, the “CL/F, Geometric Mean” value (100 mg) was 4.69 L/h, the “CL/F, Mean” value (100 mg) was 4.76 L/h and the “CL/F, Median” value (100 mg) was 5.33 L/h. The “Extrapolation, Geometric Mean” value (100 mg) was 0.36%, the “Extrapolation, Mean” value (100 mg) was 5.48% and the “Extrapolation, Median” value (100 mg) was 0.14%. For the same compound, the “CL/F, Geometric Mean” value (175 mg) was 4.57 L/h, the “CL/F, Mean” value (175 mg) was 4.66 L/h and the “CL/F, Median” value (175 mg) was 4.45 L/h. For the same compound, the “Extrapolation, Geometric Mean” value (175 mg) was 0.14%, the “Extrapolation, Mean” value (175 mg) was 0.17% and the “Extrapolation, Median” value (175 mg) was 0.16%. The “CL/F, Geometric Mean” value (350 mg) was 4.75 L/h, the “CL/F, Mean” value (350 mg) was 4.95 L/h and the “CL/F, Median” value (350 mg) was 4.75 L/h. The “Extrapolation, Geometric Mean” value (350 mg) was 0.37%, the “Extrapolation, Mean” value (350 mg) was 0.60% and the “Extrapolation, Median” value (350 mg) was 0.43%. For the same compound, the “AUC0-∞, Mean” value (350 mg + 525 mg) was 74358.88 ng·h/mL, the “CL/F, Geometric Mean” value (350 mg + 525 mg) was 6.04 L/h and the “CL/F, Mean” value (350 mg + 525 mg) was 6.51 L/h. For the same compound, the “CL/F, Median” value (350 mg + 525 mg) was 6.10 L/h, the “Extrapolation, Geometric Mean” value (350 mg + 525 mg) was 0.29% and the “Extrapolation, Mean” value (350 mg + 525 mg) was 0.59%. For the same compound, the “Extrapolation, Median” value (350 mg + 525 mg) was 0.32%, the “Tmax, Mean” value (350 mg + 525 mg) was 4.96 h and the “CL/F, Geometric Mean” value (525 mg) was 7.66 L/h. The “CL/F, Mean” value (525 mg) was 8.07 L/h, the “CL/F, Median” value (525 mg) was 7.64 L/h and the “Extrapolation, Geometric Mean” value (525 mg) was 0.22%. The “Extrapolation, Mean” value (525 mg) was 0.59%, the “Extrapolation, Median” value (525 mg) was 0.23% and the “Plasma concentration, Mean” value (350 mg) was 2660.000 ng/mL. For the same compound, the “Plasma concentration, Mean” value (350 mg + 525 mg) was 2437.500 ng/mL, the “Plasma concentration, Mean” value (525 mg) was 2215.000 ng/mL and the “dose proportionality, power model slope” value (all dose groups, 95% CI 0.8358-0.9417) was 0.8888. For the same compound, the concentration at 6 h [1] was 35.2 ng/mL, the concentration at 6 h [2] was 35.8 ng/mL and the concentration at 6 h [3] was 33.5 ng/mL. It also gave a concentration at 12 h [1] of 21.5 ng/mL, a concentration at 12 h [2] of 21.9 ng/mL and a concentration at 12 h [3] of 21.7 ng/mL. For the same compound, the concentration at 24 h [1] was 11 ng/mL, the concentration at 24 h [2] was 11.3 ng/mL and the concentration at 24 h [3] was 10.8 ng/mL. It also gave a concentration at 48 h [1] of 2.29 ng/mL, a concentration at 48 h [2] of 2.7 ng/mL and a concentration at 48 h [3] of 2.34 ng/mL. The concentration at 72 h [2] was 0.586 ng/mL, the concentration at 72 h [3] was 0.449 ng/mL and the AUC(0-t) (3 mg, read-out: AUC0-24, Geometric Mean) was 514 ng·h/mL. For the same compound, the AUC(0-t) (3 mg, read-out: AUC0-24, Mean) was 521 ng·h/mL, the AUC(0-t) (3 mg, read-out: AUC0-24, Median) was 504 ng·h/mL and the AUC(0-t) (3 mg, read-out: AUC0-48, Geometric Mean) was 676 ng·h/mL. For the same compound, the AUC(0-t) (3 mg, read-out: AUC0-48, Mean) was 689 ng·h/mL, the AUC(0-t) (3 mg, read-out: AUC0-48, Median) was 678 ng·h/mL and the AUC(0-t) (3 mg, read-out: AUC0-last, Geometric Mean) was 702 ng·h/mL. For the same compound, the AUC(0-t) (3 mg, read-out: AUC0-last, Mean) was 721 ng·h/mL, the AUC(0-t) (3 mg, read-out: AUC0-last, Median) was 713 ng·h/mL and the AUC(0-inf) (3 mg, read-out: AUC0-∞, Geometric Mean) was 722 ng·h/mL. For the same compound, the AUC(0-inf) (3 mg, read-out: AUC0-∞, Mean) was 741 ng·h/mL, the AUC(0-inf) (3 mg, read-out: AUC0-∞, Median) was 730 ng·h/mL and the Cmax (3 mg, read-out: Cmax, Geometric Mean) was 37.6 ng/mL. It also gave a Cmax (3 mg, read-out: Cmax, Mean) of 38.2 ng/mL, a Cmax (3 mg, read-out: Cmax, Median) of 36.5 ng/mL and a half-life (3 mg, read-out: Half-Life Lambda Z, Geometric Mean (converted)) of 11.1 h. The half-life (3 mg, read-out: Half-Life Lambda Z, Mean (converted)) was 11.3 h, the half-life (3 mg, read-out: Half-Life Lambda Z, Median (converted)) was 11.2 h and the MRT (3 mg, read-out: Mean Residence Time, Geometric Mean) was 17.3 h. The MRT (3 mg, read-out: Mean Residence Time, Mean) was 17.5 h, the MRT (3 mg, read-out: Mean Residence Time, Median) was 16.8 h and the Tmax (3 mg, read-out: Tmax, Geometric Mean) was 4.33 h. For the same compound, the Tmax (3 mg, read-out: Tmax, Mean) was 4.46 h, the Tmax (3 mg, read-out: Tmax, Median) was 4 h and the Vd/F (3 mg, read-out: Vz/F, Geometric Mean) was 66.5 L. The Vd/F (3 mg, read-out: Vz/F, Mean) was 66.9 L, the Vd/F (3 mg, read-out: Vz/F, Median) was 65.4 L and the concentration at 6 h [4] was 129 ng/mL. It also gave a concentration at 6 h [5] of 131 ng/mL, a concentration at 6 h [6] of 137 ng/mL and a concentration at 12 h [4] of 92.8 ng/mL. The concentration at 12 h [5] was 94.2 ng/mL, the concentration at 12 h [6] was 97.8 ng/mL and the concentration at 24 h [4] was 56.3 ng/mL. For the same compound, the concentration at 24 h [5] was 57.8 ng/mL, the concentration at 24 h [6] was 61.5 ng/mL and the concentration at 48 h [4] was 15.8 ng/mL. For the same compound, the concentration at 48 h [5] was 16.4 ng/mL.
